Laboratory results: patent US20140121101A1, “TERNARY FUNGICIDAL COMPOSITIONS COMPRISING A DITHIINO-TETRACARBOXAMIDE FUNGICIDE” (BAYER INTELLECTUAL PROPERTY GMBH, priority 2011, published 2014)

System: Alternaria solani
Assay: Alternaria test (tomatoes)/preventive
Format: in vivo
Settings: tomato plants, preventive spray, evaluated 3 days after inoculation
Experimental: Alternaria Test (Tomatoes)/Preventive [table] To produce a suitable preparation of active compound, 1 part by weight of active compound is mixed with the stated amounts of solvent and emulsifier, and the concentrate is diluted with water to the desired concentration. To test for preventive activity, young plants are sprayed with the preparation of active compound at the stated rate of application. After the spray coating has dried on, the plants are inoculated with an aqueous spore suspension of Alternaria solani. The plants are then placed in an incubation cabinet at approximately 20° C. and a relative atmospheric humidity of 100%. The test is evaluated 3 days after the inoculation. 0% means an efficacy which corresponds to that of the untreated control while an efficacy of 100% means that no disease is observed.

SMILES | Efficacy in % found (activity found) (5 ppm a.i.) [%] | Efficacy in % found (activity found) (0.5 ppm a.i.) [%]
Cn1c(=O)c2sc3c(=O)n(C)c(=O)c3sc2c1=O [(1.1), 2,6-dimethyl-1H,5H-[1,4]dithiino[2,3-c:5,6-c′]dipyrrole-1,3,5,7(2H,6H)-tetrone] | 0 | 
OC(Cc1ccccc1Cl)(Cn1nc[nH]c1=S)C1(Cl)CC1 (stereo not drawn) [(2.41), prothioconazole] |  | 4
CON=C(C(=O)OC)c1ccccc1CON=C(C)c1cccc(C(F)(F)F)c1 [(3.22), trifloxystrobin] |  | 29
